Measurements: patent US20260076369A1, “USE OF MELATONIN AND/OR PRECURSOR THEREOF FOR DECREASING THE PLANT NITRATE CONTENT” (priority 2022, published 2026)
Marks after values point to notes of the source that are not given here.

Tests used:
[1] = test system: French Bean plants (Phaseolus vulgaris); experiment: Nitrate concentration in bean leaves after soil application; assay type: in vivo; details: 20 micromolar total
Protocol: French Bean plants (Phaseolus vulgaris), were cultivated in pots containing a peat substrate and receiving mineral fertilization including 40 kg N/hectare by ammonium nitrate and 20 kg SO3/hectare by magnesium sulfate in a greenhouse under controlled conditions (16 h light/8 h dark and 25° C.). The fertilizers were brought to the surface of the pots after 10 days of culture.
Just after adding the fertilizers, the plants were divided in four groups. The experiment was arranged in a randomized complete block design with six replicates. The Control group (CT) was without any treatment; 3 groups were treated by addition of an aqueous solution of (1) synthetic melatonin (SM) (20 micromolar), (2) phytomelatonin (pM) (20 micromolar) from a Spirulina extract and (3) a combination of synthetic melatonin (10 micromolar), and phytomelatonin from a rich Spirulina extract (CM) (10 micromolar). Applications have been done in the soils 10 days after transplantation and one time every 7 days. Plants were harvested 6 weeks after transplanting and 2 weeks after the last treatment. Then leaves were dried and used for the determination of dry weight and nitrate content. Nitrate concentration in the leaves was determined by High Performance Ionic Chromatography. The results were expressed in mg NO3/g of dry matter.

[2] = test system: Lettuce plants (Lactuca sativa L.); experiment: Nitrate concentration in lettuce leaves after foliar spray; assay type: in vivo; details: for decrease of leaves nitrate content: 20 micromolar, vs control; for Nitrate concentration in lettuce leaves: 20 micromolar spray with Tween 20; for time the decrease of leaf nitrate content is maintained after the treatment: lettuce, 20 micromolar foliar spray
Protocol: Lettuce plants (Lactuca sativa L.), were cultivated in pots containing an alkaline soil and receiving mineral fertilization including ammonium nitrate (NAC 27) in a greenhouse under controlled conditions (16 h light/8 h dark and 25° C.). Once the commercial size of the plants was reached, the plants were divided in three groups. The Control group (CT) was sprayed with water and a surfactant (Tween 20); the melatonin (M) group was sprayed with a solution of 20 micromolar of synthetic melatonin and the adjuvant; and the tryptophan group (Tr) was sprayed with a solution of 20 micromolar of biosynthetic tryptophan and the adjuvant. The plants were harvested 48 h and […] after foliar application at 12 am. Nitrate concentration in the leaves was determined in leaf water extract by colorimetric detection at 415 nm after reaction of nitrate with salicylic acid in acidic medium and the formation of nitrosalicylate. Each treatment and harvest had five plants.

[3] = harvest 48 h after foliar application, CT 1563
[4] = harvest 120 h after foliar application, CT 1452

Row | SMILES | decrease of nitrate content in bean leaves ([1]; 2 weeks after the last treatment, vs control) | Nitrate content in bean leaves ([1]; applied to soil every 7 days, harvest 2 weeks after last treatment, CT 2.47) | decrease of leaves nitrate content ([2]; 48 h after the treatment) | decrease of leaves nitrate content ([2]; 120 h after the treatment) | Nitrate concentration in lettuce leaves [2, 3] | Nitrate concentration in lettuce leaves [2, 4] | time the decrease of leaf nitrate content is maintained after the treatment [2]
1 | COc1ccc2[nH]cc(CCNC(C)=O)c2c1 [Melatonin, N-acetyl-5-methoxy tryptamine] | 79% | 0.52* mg/g of dry weight | 53% | 50% | 738* mg kg^−1 fresh weight | 706* mg kg^−1 fresh weight | at least 5 days
2 | N[C@@H](Cc1c[nH]c2ccccc12)C(=O)O [tryptophan] | – | – | 50% | 39% | 780* mg kg^−1 fresh weight | 887* mg kg^−1 fresh weight | at least 5 days
